Assay results as given in ChEMBL document CHEMBL1201862, “PubChem BioAssay data set” (2004).
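Five concentrations, 48 hours, 96-well plates. GI50 marks 50% less growth.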 Activity calls are given as the source filed them. Cut-off read from the data, not from the text of the source: active = GI50 up to about 1.1 µM and inactive = higher.

What was measured:
Test in all cases: NCI anticancer screen, dose series, 48 h
Malme-3M = test system: Malme-3M
EKVX = test system: EKVX
OVCAR-5 = test system: OVCAR-5
SW-620 = test system: SW-620
CCRF-CEM = test system: CCRF-CEM
SNB-78 = test system: SNB-78
UACC-257 = test system: UACC-257
TK-10 = test system: TK-10
A549 = test system: A549
786-0 = test system: 786-0
CAKI-1 = test system: CAKI-1
HCT-15 = test system: HCT-15
UO-31 = test system: UO-31
SK-MEL-5 = test system: SK-MEL-5
RXF 393 = test system: RXF 393
HOP-92 = test system: HOP-92
MOLT-4 = test system: MOLT-4
UACC-62 = test system: UACC-62
SNB-19 = test system: SNB-19
SK-OV-3 = test system: SK-OV-3
KM-20L2 = test system: KM-20L2
SF-295 = test system: SF-295
DLD-1 = test system: DLD-1
OVCAR-3 = test system: OVCAR-3
DMS-114 = test system: DMS-114
NCI-H460 = test system: NCI-H460
RXF 631 = test system: RXF 631
SF-268 = test system: SF-268
OVCAR-8 = test system: OVCAR-8
SK-MEL-2 = test system: SK-MEL-2
HOP-62 = test system: HOP-62
LXFL 529 = test system: LXFL 529
NCI-H23 = test system: NCI-H23
M14 = test system: M14
SNB-75 = test system: SNB-75
SN12C = test system: SN12C
NCI-H522 = test system: NCI-H522
KM12 = test system: KM12
COLO 205 = test system: COLO 205
RPMI-8226 = test system: RPMI-8226
M19-MEL = test system: M19-MEL
IGROV-1 = test system: IGROV-1
HL-60 = test system: HL-60
HCC 2998 = test system: HCC 2998
ACHN = test system: ACHN
XF498 = test system: XF498
SK-MEL-28 = test system: SK-MEL-28
OVCAR-4 = test system: OVCAR-4
K562 = test system: K562
DMS-273 = test system: DMS-273
LOX IMVI = test system: LOX IMVI
HCT-116 = test system: HCT-116
U-251 = test system: U-251
HT-29 = test system: HT-29
SR = test system: SR
SF-539 = test system: SF-539
NCI-H226 = test system: NCI-H226
A498 = test system: A498

## O=C(O)c1cc(=O)c2[nH]c3ccccc3c2s1
Malme-3M
  GI50: > 100 µM (inactive)
EKVX
  GI50: > 100 µM (inactive)
OVCAR-5
  GI50: > 100 µM (inactive)
SW-620
  GI50: > 100 µM (inactive)
CCRF-CEM
  GI50: > 100 µM (inactive)
SNB-78
  GI50: > 100 µM (inactive)
UACC-257
  GI50: > 100 µM (inactive)
TK-10
  GI50: > 100 µM (inactive)
A549
  GI50: > 100 µM (inactive)
786-0
  GI50: > 100 µM (inactive)
CAKI-1
  GI50: > 100 µM (inactive)
HCT-15
  GI50: > 100 µM
UO-31
  GI50: > 100 µM (inactive)
SK-MEL-5
  GI50: > 100 µM (inactive)
RXF 393
  GI50: > 100 µM (inactive)
HOP-92
  GI50: > 100 µM (inactive)
MOLT-4
  GI50: > 100 µM (inactive)
UACC-62
  GI50: > 100 µM (inactive)
SNB-19
  GI50: > 100 µM (inactive)
SK-OV-3
  GI50: > 100 µM (inactive)
KM-20L2
  GI50: > 100 µM (inactive)
SF-295
  GI50: > 100 µM (inactive)
DLD-1
  GI50: > 100 µM (inactive)
OVCAR-3
  GI50: > 100 µM (inactive)
DMS-114
  GI50: > 100 µM (inactive)
NCI-H460
  GI50: > 100 µM (inactive)
RXF 631
  GI50: > 100 µM (inactive)
SF-268
  GI50: > 100 µM (inactive)
OVCAR-8
  GI50: > 100 µM (inactive)
SK-MEL-2
  GI50: > 100 µM (inactive)
HOP-62
  GI50: > 100 µM (inactive)
LXFL 529
  GI50: > 100 µM (inactive)
NCI-H23
  GI50: > 100 µM (inactive)
M14
  GI50: > 100 µM (inactive)
SNB-75
  GI50: 41.4 µM (inactive)
SN12C
  GI50: > 100 µM (inactive)
NCI-H522
  GI50: > 100 µM (inactive)
KM12
  GI50: > 100 µM (inactive)
COLO 205
  GI50: > 100 µM (inactive)
RPMI-8226
  GI50: > 100 µM (inactive)
M19-MEL
  GI50: > 100 µM (inactive)
IGROV-1
  GI50: > 100 µM (inactive)
HL-60
  GI50: > 100 µM (inactive)
HCC 2998
  GI50: > 100 µM (inactive)
ACHN
  GI50: > 100 µM (inactive)
XF498
  GI50: > 100 µM (inactive)
SK-MEL-28
  GI50: > 100 µM (inactive)
OVCAR-4
  GI50: > 100 µM (inactive)
K562
  GI50: > 100 µM (inactive)

## N#CCCN(CCC#N)c1ccc(/C=C2\N=C(CN3C(=O)c4ccccc4C3=O)OC2=O)cc1
Malme-3M
  GI50: > 100 µM (inactive)
EKVX
  GI50: > 100 µM (inactive)
DMS-273
  GI50: > 100 µM (inactive)
OVCAR-5
  GI50: > 100 µM (inactive)
SW-620
  GI50: > 100 µM (inactive)
UACC-257
  GI50: > 100 µM (inactive)
LOX IMVI
  GI50: > 100 µM (inactive)
A549
  GI50: > 100 µM (inactive)
786-0
  GI50: > 100 µM (inactive)
HCT-116
  GI50: > 100 µM (inactive)
CAKI-1
  GI50: > 100 µM (inactive)
HCT-15
  GI50: > 100 µM
UO-31
  GI50: > 100 µM (inactive)
SK-MEL-5
  GI50: > 100 µM (inactive)
MOLT-4
  GI50: > 100 µM (inactive)
UACC-62
  GI50: > 100 µM (inactive)
SNB-19
  GI50: > 100 µM (inactive)
SK-OV-3
  GI50: > 100 µM (inactive)
KM-20L2
  GI50: > 100 µM (inactive)
U-251
  GI50: > 100 µM (inactive)
HT-29
  GI50: > 100 µM (inactive)
SF-295
  GI50: > 100 µM (inactive)
OVCAR-3
  GI50: > 100 µM (inactive)
SR
  GI50: > 100 µM (inactive)
SF-539
  GI50: > 100 µM (inactive)
NCI-H226
  GI50: > 100 µM (inactive)
DMS-114
  GI50: > 100 µM (inactive)
NCI-H460
  GI50: > 100 µM (inactive)
RXF 631
  GI50: > 100 µM (inactive)
SF-268
  GI50: > 100 µM (inactive)
A498
  GI50: > 100 µM (inactive)
OVCAR-8
  GI50: > 100 µM (inactive)
SK-MEL-2
  GI50: > 100 µM (inactive)
HOP-62
  GI50: > 100 µM (inactive)
LXFL 529
  GI50: > 100 µM (inactive)
M14
  GI50: > 100 µM (inactive)
SNB-75
  GI50: > 100 µM (inactive)
SN12C
  GI50: > 100 µM (inactive)
NCI-H522
  GI50: 89.7 µM (inactive)
KM12
  GI50: > 100 µM (inactive)
RPMI-8226
  GI50: 39.3 µM (inactive)
M19-MEL
  GI50: > 100 µM (inactive)
IGROV-1
  GI50: > 100 µM (inactive)
HL-60
  GI50: > 100 µM (inactive)
HCC 2998
  GI50: > 100 µM (inactive)
ACHN
  GI50: > 100 µM (inactive)
XF498
  GI50: > 100 µM (inactive)
SK-MEL-28
  GI50: > 100 µM (inactive)
OVCAR-4
  GI50: > 100 µM (inactive)
K562
  GI50: > 100 µM (inactive)

## COC(=O)c1cc(O)ccc1O [METHYL 2,5-DIHYDROXYBENZOATE]
Malme-3M
  GI50: > 100 µM (inactive)
EKVX
  GI50: > 100 µM (inactive)
DMS-273
  GI50: > 100 µM (inactive)
OVCAR-5
  GI50: > 100 µM (inactive)
SW-620
  GI50: > 100 µM (inactive)
CCRF-CEM
  GI50: > 100 µM (inactive)
SNB-78
  GI50: > 100 µM (inactive)
UACC-257
  GI50: > 100 µM (inactive)
TK-10
  GI50: > 100 µM (inactive)
LOX IMVI
  GI50: > 100 µM (inactive)
A549
  GI50: > 100 µM (inactive)
786-0
  GI50: > 100 µM (inactive)
CAKI-1
  GI50: > 100 µM (inactive)
HCT-15
  GI50: > 100 µM
UO-31
  GI50: > 100 µM (inactive)
SK-MEL-5
  GI50: > 100 µM (inactive)
RXF 393
  GI50: > 100 µM (inactive)
HOP-92
  GI50: > 100 µM (inactive)
MOLT-4
  GI50: > 100 µM (inactive)
UACC-62
  GI50: > 100 µM (inactive)
SNB-19
  GI50: > 100 µM (inactive)
SK-OV-3
  GI50: > 100 µM (inactive)
U-251
  GI50: > 100 µM (inactive)
HT-29
  GI50: > 100 µM (inactive)
SF-295
  GI50: > 100 µM (inactive)
OVCAR-3
  GI50: > 100 µM (inactive)
SF-539
  GI50: > 100 µM (inactive)
NCI-H226
  GI50: > 100 µM (inactive)
DMS-114
  GI50: > 100 µM (inactive)
NCI-H460
  GI50: > 100 µM (inactive)
RXF 631
  GI50: > 100 µM (inactive)
SF-268
  GI50: > 100 µM (inactive)
OVCAR-8
  GI50: > 100 µM (inactive)
SK-MEL-2
  GI50: > 100 µM (inactive)
HOP-62
  GI50: > 100 µM (inactive)
LXFL 529
  GI50: > 100 µM (inactive)
M14
  GI50: > 100 µM (inactive)
SNB-75
  GI50: > 100 µM (inactive)
SN12C
  GI50: > 100 µM (inactive)
NCI-H522
  GI50: 93.1 µM (inactive)
KM12
  GI50: > 100 µM (inactive)
COLO 205
  GI50: > 100 µM (inactive)
RPMI-8226
  GI50: > 100 µM (inactive)
M19-MEL
  GI50: > 100 µM (inactive)
IGROV-1
  GI50: > 100 µM (inactive)
HL-60
  GI50: > 100 µM (inactive)
HCC 2998
  GI50: > 100 µM (inactive)
ACHN
  GI50: > 100 µM (inactive)
XF498
  GI50: > 100 µM (inactive)
SK-MEL-28
  GI50: > 100 µM (inactive)
OVCAR-4
  GI50: > 100 µM (inactive)
K562
  GI50: > 100 µM (inactive)
